Results taken from patent publication US20080112992A1, “METHOD FOR CONTROLLING THE APPLICATION OF AN INSECTICIDE AND COMPOSITION THEREOF” (FLIT.S.A., priority 2001, published 2008).

Test: Colour change time after spraying on surfaces and drying in air
Format: physicochemical
Procedure: This composition of a pH of about 7.0 and of a yellow colour was applied by spraying to various kinds of surfaces, such as wood, painted wood, painted walls, ceramic tile, plastic (polyethylene), glass and stainless steel.
After about 40 minutes of exposure to air (including carbon dioxide), the composition was dried and the yellow colour disappeared.
Other levels of 4-nitrophenol were tested, and it was shown that with 0.05 wt % the yellow colour was somewhat faint but with a shorter colour changing time (about 25 min.), whereas with highest content, i.e. 0.5 resp. 1.0%, the colour change takes more time, i.e. 70 resp. 120 min.
Phenolphthalein was also tested at levels of 0.01 to 1.0 wt %, which all gave acceptable results and a colour change of about 40 min. The pH of the composition was initially adjusted to 9.4 using triethanolamine.

colour change time (phenolphthalein at 0.01 to 1.0 wt %, pH initially adjusted to 9.4 using triethanolamine) | SMILES | colour changing time (0.05 wt % 4-nitrophenol in the composition, yellow colour somewhat faint) | colour change time (0.5 % 4-nitrophenol in the composition) [min] | colour change time (1.0 % 4-nitrophenol in the composition) [min]
 | O=[N+]([O-])c1ccc(O)cc1 [4-nitrophenol] | about 25 min. | 70 | 120
about 40 min. | O=C1OC(c2ccc(O)cc2)(c2ccc(O)cc2)c2ccccc21 [Phenolphthalein, phenolphthalein] |  |  | 
